Test results taken from US20090023704A1, “Novel Compounds 737” (ASTRAZENECA AB, priority 2007, published 2009).

target: T1, GABAB receptor (GABABR1a/GABABR2 heterodimer) (Homo sapiens, UniProt O75899+Q9UBS5); experiment: [35S]-GTPγS binding assay, potency of PAM (GABA dose-response curves with and without test compound); assay type: biochemical; conditions: potency of the positive allosteric modulator; GABA dose-response in presence of test compound
T1 construct: expressed in transfected cells
Source text: GABABR1a and GABABR2 were cloned from human brain cDNA and subcloned into pCI-Neo (Promega) and pALTER-1 (Promega), respectively. A GABABR1a-Gαqi5 fusion protein expression vector was constructed using the pCI-Neo-GABABR1a cDNA plasmid and pLEC1-Gαqi5 (Molecular Devices, CA). In order to make the Gαqi5 pertussis toxin insensitive, Cys356 was mutated to Gly using standard PCR methodology with the primers 5′-[…]-3′ (forward) and 5′-GCGGCCG […]-3′ (reverse). The Gαqi5mut cDNA was ligated into the BamHI and NotI sites of pcDNA3.0 (Invitrogen). The GABAB R1a coding sequence was amplified by PCR from pCI-Neo-GABABR1a using the primers, 5′-[…]-3′ (forward) and 5′-[…]-3′ (reverse) and subcloned into the BamHI site of pcDNA3.0-Gαqi5mut.
For generation of a cell line expressing the GABABR1a/GABABR2 heterodimer, GABABR1a plasmid DNA (4 μg) GABABR2 plasmid DNA (4 μg) and lipofectamine (24 μl) were mixed in 5 ml OptiMEM and incubated for 45 minutes at room temperature. The cells were exposed to the transfection medium for 5 hours, which then was replaced with culture medium. The cells were cultured for an additional 10 days before selection agents (300 μg/ml hygromycin and 400 μg/ml geneticin) were added. Twenty-four days after transfection, single cell sorting into 96-well plates by flow cytometry was performed using a FACS Vantage SE (Becton Dickinson, Palo Alto, Calif.). After expansion, the GABAB receptor functional response was tested using the FLIPR assay described below. The clone with the highest functional response was collected, expanded and then subcloned by single cell sorting. The clonal cell line with the highest peak response in the FLIPR was used in the present study.
For generation of a stable cell line expressing GABABR1a-Gαqi5 fusion protein and GABABR2, GABABR1a-Gαqi5mut plasmid DNA (8 μg) GABABR2 plasmid DNA (8 μg) and lipofectamine (24 μl) were mixed in 5 ml OptiMEM and incubated for 45 minutes at room temperature. The cells were exposed to the transfection medium for 5 hours, which then was replaced with culture medium. After forty-eight hours, the cells were detached and seeded in 6 well plates (2000 cells/well) and grown in culture medium supplemented with geneticin (400 μg/ml) and zeocin (250 μg/ml). After 4 days, cells from single colonies were collected and transferred to a 24-well plate. After 10 days, the cell clones were seeded in T-25 flasks and grown for another 16 days before they were tested for GABAB receptor mediated functional response. […] The clonal cell line that gave the highest peak response in the FLIPR was used in the present study.
[^35S]-GTPγS binding assays were performed at 30° C. for 45 min in membrane buffer (100 mM NaCl, 5 mM MgCl2, 1 mM EDTA, 50 mM HEPES, pH 7.4) containing 0.025 μg/μl of membrane protein (prepared from the cell lines described above) with 0.01% bovine serum albumin (fatty acid free), 10 μM GDP, 10 μM DTT and 0.53 nM [^35S]-GTPγS (Amersham-Pharmacia Biotech) in a final volume of 200 μl. Non-specific binding was determined in the presence of 20 μM GTPγS. The reaction was started by the addition of GABA at concentration between 1 mM and 0.1 nM in the presence or absence of the required concentration of PAM. The reaction was terminated by addition of ice-cold wash buffer (50 mM Tris-HCl, 5 mM MgCl2, 50 mM NaCl, pH 7.4) followed by rapid filtration under vacuum through Printed Filtermat A glass fiber filters (Wallac) (0.05% PEI treated) using a Micro 96 Harvester (Skatron Instruments). The filters were dried for 30 min at 50° C., then a paraffin scintillant pad was melted onto the filters and the bound radioactivity was determined using a 1450 Microbeta Trilux (Wallac) scintillation counter.
GABA dose-response curves in the presence and absence of test compounds were constructed using the 4-parameter logistic equation, y=ymax+((ymin−ymax)/1+(x/C)^D), where C=EC50 and D=slope factor.

T1 sequence (Q9UBS5 15-961 limits assumed): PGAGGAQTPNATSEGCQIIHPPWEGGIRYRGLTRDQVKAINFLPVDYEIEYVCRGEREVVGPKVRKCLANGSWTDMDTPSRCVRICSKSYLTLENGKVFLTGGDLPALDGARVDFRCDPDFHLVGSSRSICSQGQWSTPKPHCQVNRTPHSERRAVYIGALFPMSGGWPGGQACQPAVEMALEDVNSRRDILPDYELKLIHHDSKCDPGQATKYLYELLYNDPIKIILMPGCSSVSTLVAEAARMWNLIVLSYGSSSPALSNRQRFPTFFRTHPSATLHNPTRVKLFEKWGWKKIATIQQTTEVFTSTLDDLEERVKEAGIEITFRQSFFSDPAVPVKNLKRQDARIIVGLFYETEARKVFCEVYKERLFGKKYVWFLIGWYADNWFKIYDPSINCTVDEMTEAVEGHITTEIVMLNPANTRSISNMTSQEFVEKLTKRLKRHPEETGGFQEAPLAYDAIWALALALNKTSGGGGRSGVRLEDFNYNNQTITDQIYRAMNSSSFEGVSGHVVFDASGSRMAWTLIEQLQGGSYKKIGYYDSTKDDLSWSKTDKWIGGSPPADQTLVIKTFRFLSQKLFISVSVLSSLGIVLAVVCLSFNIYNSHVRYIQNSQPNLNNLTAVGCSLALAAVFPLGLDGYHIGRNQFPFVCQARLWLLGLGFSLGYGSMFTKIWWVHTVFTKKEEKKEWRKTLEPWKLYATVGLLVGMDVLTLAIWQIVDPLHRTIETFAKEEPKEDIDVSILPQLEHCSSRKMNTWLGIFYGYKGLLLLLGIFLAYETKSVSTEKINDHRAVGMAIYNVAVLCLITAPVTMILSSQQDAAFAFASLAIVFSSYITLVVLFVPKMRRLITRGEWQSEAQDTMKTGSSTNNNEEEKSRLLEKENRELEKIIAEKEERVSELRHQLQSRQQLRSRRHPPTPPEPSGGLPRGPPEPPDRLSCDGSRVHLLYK
T1 sequence (O75899 42-941): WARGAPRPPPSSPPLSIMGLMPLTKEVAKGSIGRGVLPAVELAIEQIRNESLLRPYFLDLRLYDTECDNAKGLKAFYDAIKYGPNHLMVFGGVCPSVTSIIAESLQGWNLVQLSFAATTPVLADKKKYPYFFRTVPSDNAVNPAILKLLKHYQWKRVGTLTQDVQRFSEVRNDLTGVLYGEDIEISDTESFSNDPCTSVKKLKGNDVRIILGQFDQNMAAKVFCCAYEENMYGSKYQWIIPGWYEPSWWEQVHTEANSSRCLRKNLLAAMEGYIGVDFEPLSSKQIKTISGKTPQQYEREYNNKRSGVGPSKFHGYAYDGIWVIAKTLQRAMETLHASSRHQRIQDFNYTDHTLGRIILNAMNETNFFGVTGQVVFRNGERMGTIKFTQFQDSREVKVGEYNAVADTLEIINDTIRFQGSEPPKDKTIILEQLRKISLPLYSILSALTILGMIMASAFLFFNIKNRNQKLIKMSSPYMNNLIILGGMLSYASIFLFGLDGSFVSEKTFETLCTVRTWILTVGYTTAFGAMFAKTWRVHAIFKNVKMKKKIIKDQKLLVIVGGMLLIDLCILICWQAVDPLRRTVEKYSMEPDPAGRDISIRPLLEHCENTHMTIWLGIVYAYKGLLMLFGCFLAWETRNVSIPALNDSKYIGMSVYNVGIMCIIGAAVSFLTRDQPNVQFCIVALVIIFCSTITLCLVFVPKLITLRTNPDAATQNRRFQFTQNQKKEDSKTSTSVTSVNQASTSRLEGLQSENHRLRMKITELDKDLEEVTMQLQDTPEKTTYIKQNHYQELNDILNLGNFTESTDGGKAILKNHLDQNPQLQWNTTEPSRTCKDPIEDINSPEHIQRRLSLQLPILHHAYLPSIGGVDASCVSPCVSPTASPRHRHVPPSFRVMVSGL

Row | EC50 | Structure (SMILES)
1 | 3.5 µM | CCc1nc2c(c(=O)n(Cc3ccc(Cl)cc3)c(=O)n2Cc2ccc(-n3cccn3)cc2)n1C [Example 26, 1-(4-chlorobenzyl)-8-ethyl-7-methyl-3-[4-(1H-pyrazol-1-yl)benzyl]-3,7-dihydro-1H-purine-2,6-dione]
2 | 5.9 µM | CCCn1c(=O)n(Cc2cnn(-c3ccc(Cl)cc3)c2C(F)(F)F)c(=O)c2c1nc(CC)n2C [Example 59, 1-{[1-(4-Chlorophenyl)-5-(trifluoromethyl)-1H-pyrazol-4-yl]methyl}-8-ethyl-7-methyl-3-propyl-3,7-dihydro-1H-purine-2,6-dione]
3 | 11.1 µM | CCCn1c(=O)n(Cc2ccc3nsnc3c2)c(=O)c2c1nc(CC)n2C [Example 64, 1-(2,1,3-Benzothiadiazol-5-ylmethyl)-8-ethyl-7-methyl-3-propyl-3,7-dihydro-1H-purine-2,6-dione]
4 | 5.6 µM | CCc1nc2c(c(=O)n(Cc3ccc(Cl)cc3)c(=O)n2CC(=O)OC(C)(C)C)n1C [Example 35, tert-butyl [1-(4-chlorobenzyl)-8-ethyl-7-methyl-2,6-dioxo-1,2,6,7-tetrahydro-3H-purin-3-yl]acetate]
5 | 2 µM | CCc1nc2c(c(=O)n(Cc3ccc(Cl)c(Cl)c3)c(=O)n2CCC(C)(C)C)n1C [Example 41, 1-(3,4-Dichlorobenzyl)-3-(3,3-dimethylbutyl)-8-ethyl-7-methyl-3,7-dihydro-1H-purine-2,6-dione]
6 | 13.8 µM | CCCn1c(=O)n(CCc2ccc(Cl)cc2)c(=O)c2c1nc(CC)n2C [Example 63, 1-[2-(4-Chlorophenyl)ethyl]-8-ethyl-7-methyl-3-propyl-3,7-dihydro-1H-purine-2,6-dione]
7 | 8.7 µM | CCc1nc2c(c(=O)n(Cc3ccc(Cl)cc3)c(=O)n2CCCN2CCN(c3ccccc3)CC2)n1C [Example 47, 1-(4-Chlorobenzyl)-8-ethyl-7-methyl-3-[3-(4-phenylpiperazin-1-yl)propyl]-3,7-dihydro-1H-purine-2,6-dione]
8 | 3 µM | CCc1nc2c(c(=O)n(Cc3ccc(Cl)cc3)c(=O)n2CC2CCCCC2)n1C [Example 20, 1-(4-Chlorobenzyl)-3-(cyclohexylmethyl)-8-ethyl-7-methyl-3,7-dihydro-1H-purine-2,6-dione]
9 | 10 µM | CCc1nc2c(c(=O)n(Cc3ccc(Cl)cc3)c(=O)n2CC(=O)N2CCC(F)(F)C2)n1C [Example 50, 1-(4-Chlorobenzyl)-3-[2-(3,3-difluoropyrrolidin-1-yl)-2-oxoethyl]-8-ethyl-7-methyl-3,7-dihydro-1H-purine-2,6-dione]
10 | 19.7 µM | CCCn1c(=O)n(Cc2ccc(OC)cc2)c(=O)c2c1nc(CC)n2C [Example 69, 8-Ethyl-1-(4-methoxybenzyl)-7-methyl-3-propyl-3,7-dihydro-1H-purine-2,6-dione]
11 | 11.3 µM | CCc1nc2c(c(=O)n(Cc3ccc(Cl)cc3)c(=O)n2Cc2ccc(OC)cc2OC)n1C [Example 71, 1-(4-Chlorobenzyl)-3-(2,4-dimethoxybenzyl)-8-ethyl-7-methyl-3,7-dihydro-1H-purine-2,6-dione]
12 | 6.6 µM | CCc1nc2c(c(=O)n(Cc3ccc(Cl)cc3)c(=O)n2CCCOc2ccc(C(F)(F)F)cc2)n1C [Example 36, 1-(4-chlorobenzyl)-8-ethyl-7-methyl-3-{3-[4-(trifluoromethyl)phenoxy]propyl}-3,7-dihydro-1H-purine-2,6-dione]
13 | 5.1 µM | CCc1nc2c(c(=O)n(Cc3ccc(Cl)cc3)c(=O)n2CC2COc3ccccc3O2)n1C (stereo not shown) [Example 24, 1-(4-chlorobenzyl)-3-(2,3-dihydro-1,4-benzodioxin-2-ylmethyl)-8-ethyl-7-methyl-3,7-dihydro-1H-purine-2,6-dione]
14 | 3.5 µM | CCc1nc2c(c(=O)n(Cc3ccc(Cl)cc3)c(=O)n2CCC(F)(F)F)n1C [Example 75]
15 | 1.9 µM | CCCn1c(=O)n(Cc2ccc(Cl)cc2)c(=O)c2c1nc(N1CCCCC1)n2C [Example 85, 1-(4-chlorobenzyl)-7-methyl-8-piperidin-1-yl-3-propyl-3,7-dihydro-1H-purine-2,6-dione]
16 | 12.2 µM | CCCn1c(=O)n(Cc2ccc(Cl)cc2)c(=O)c2c1nc(C(C)O)n2C (stereo not shown) [Example 96, 1-(4-chlorobenzyl)-8-(1-hydroxyethyl)-7-methyl-3-propyl-3,7-dihydro-1H-purine-2,6-dione]
17 | 4.5 µM | CCCn1c(=O)n(Cc2ccc(Cl)cc2)c(=O)c2c1nc(OC)n2C [Example 78, 1-(4-Chlorobenzyl)-8-methoxy-7-methyl-3-propyl-3,7-dihydro-1H-purine-2,6-dione]
18 | 7.9 µM | CCc1nc2c(c(=O)n(Cc3ccc(Cl)cc3)c(=O)n2CCOC)n1C [Example 32, 1-(4-chlorobenzyl)-8-ethyl-3-(2-methoxyethyl)-7-methyl-3,7-dihydro-1H-purine-2,6-dione]
19 | 8.5 µM | CCc1nc2c(c(=O)n(Cc3ccc(Cl)cc3)c(=O)n2CC(=O)OC)n1C [Example 11, Methyl [1-(4-chlorobenzyl)-8-ethyl-7-methyl-2,6-dioxo-1,2,6,7-tetrahydro-3H-purin-3-yl]acetate]
20 | 15.6 µM | CCc1nc2c(c(=O)n(Cc3ccc(Cl)cc3)c(=O)n2CCN(CC)CC)n1C [Example 27, 1-(4-chlorobenzyl)-3-[2-(diethylamino)ethyl]-8-ethyl-7-methyl-3,7-dihydro-1H-purine-2,6-dione]
21 | 1.7 µM | CCc1nc2c(c(=O)n(Cc3ccc(Cl)cc3)c(=O)n2CCn2cccc2)n1C [Example 37, 1-(4-chlorobenzyl)-8-ethyl-7-methyl-3-[2-(1H-pyrrol-1-yl)ethyl]-3,7-dihydro-1H-purine-2,6-dione]
22 | 5.2 µM | CCc1nc2c(c(=O)n(Cc3ccc(Cl)cc3)c(=O)n2Cc2ccc(Cl)cc2)n1C [Example 13, 1,3-Bis(4-chlorobenzyl)-8-ethyl-7-methyl-3,7-dihydro-1H-purine-2,6-dione]
23 | 11.5 µM | COc1nc2c(c(=O)n(Cc3ccc(Cl)cc3)c(=O)n2CCCC(F)(F)F)n1C [Example 81, 1-(4-chlorobenzyl)-8-methoxy-7-methyl-3-(4,4,4-trifluorobutyl)-3,7-dihydro-1H-purine-2,6-dione]
24 | 17.2 µM | CCCn1c(=O)n(Cc2ccc(Cl)cc2Cl)c(=O)c2c1nc(CC)n2C [Example 60, 1-(2,4-Dichlorobenzyl)-8-ethyl-7-methyl-3-propyl-3,7-dihydro-1H-purine-2,6-dione]
25 | 11.9 µM | CCc1nc2c(c(=O)n(Cc3ccc(Cl)cc3)c(=O)n2CC(=O)N(C(C)C)C(C)C)n1C [Example 51, 2-[1-(4-Chlorobenzyl)-8-ethyl-7-methyl-2,6-dioxo-1,2,6,7-tetrahydro-3H-purin-3-yl]-N,N-diisopropylacetamide]
26 | 2.6 µM | CCc1nc2c(c(=O)n(Cc3ccc(Cl)cc3)c(=O)n2CC(=O)c2ccccc2)n1C [Example 28, 1-(4-chlorobenzyl)-8-ethyl-7-methyl-3-(2-oxo-2-phenylethyl)-3,7-dihydro-1H-purine-2,6-dione]
27 | 1.5 µM | CCc1nc2c(c(=O)n(Cc3ccc(Cl)cc3)c(=O)n2CCC(C)(C)C)n1C [Example 2, 1-(4-Chlorobenzyl)-3-(3,3-dimethylbutyl)-8-ethyl-7-methyl-3,7-dihydro-1H-purine-2,6-dione]

Row | Structure (SMILES) | EC50
28 | CCc1nc2c(c(=O)n(Cc3ccc(Cl)cc3)c(=O)n2CCO[Si](C)(C)C(C)(C)C)n1C [Example 29, 3-(2-{[tert-butyl(dimethyl)silyl]oxy}ethyl)-1-(4-chlorobenzyl)-8-ethyl-7-methyl-3,7-dihydro-1H-purine-2,6-dione] | 8.6 µM
